# Measurements as given in patent publication US20040171566A1, “Antisense modulation of p38 mitogen activated protein kinase expression” (priority 1999, published 2004).
# In the oligonucleotide strings, read from the 5' end, every base follows the letter of its sugar. An asterisk marks phosphorothioate; unmarked linkages are phosphodiester. Other units and linkages are bracketed, terminal groups are in braces. A string of capitals states the bases alone. e = 2'-O-(2-methoxyethyl) (MOE); [5mC] = 5-methylcytosine; d = 2'-deoxy (DNA)
# Legend:
# [1] = system: human p38α mRNA; experiment: Inhibition of human p38α mRNA expression in Jurkat cells, Northern blot; type: cell-based
# Method: (§1) The human Jurkat T-cell line (American Type Culture Collection, Manassas, Va.) was maintained in RPMI 1640 growth media supplemented with 10% fetal bovine serum (FBS; Hyclone, Logan, Utah). HUVEC cells (Clonetics, San Diego, Calif.) were cultivated in endothelial basal media supplemented with 10% FBS (Hyclone, Logan, Utah).
# Jurkat cells were grown to approximately 75% confluency and resuspended in culture media at a density of 1×10^7 cells/ml. A total of 3.6×10^6 cells were employed for each treatment by combining 360 μl of cell suspension with oligonucleotide at the indicated concentrations to reach a final volume of 400 μl. Cells were then transferred to an electroporation cuvette and electroporated using an Electrocell Manipulator 600 instrument (Biotechnologies and Experimental Research, Inc.) employing 150 V, 1000 μF, at 13 Ω. Electroporated cells were then transferred to conical tubes containing 5 ml of culture media, mixed by inversion, and plated onto 10 cm culture dishes.
# (§2) Total mRNA was isolated using the RNEASY7 Mini Kit (Qiagen, Valencia, Calif.; similar kits from other manufacturers may also be used), separated on a 1% agarose gel, transferred to HYBOND™-N+ membrane (Amersham Pharmacia Biotech, Piscataway, N.J.), a positively charged nylon membrane, and probed. p38 MAPK probes were made using the Prime-A-Gene7 kit (Promega Corporation, Madison, Wis.), a random primer labeling kit, using mouse p38α or p38β cDNA as a template. A glyceraldehyde 3-phosphate dehydrogenase (G3PDH) probe was purchased from Clontech (Palo Alto, Calif.), Catalog Number 9805-1. The fragments were purified from low-melting temperature agarose, as described in Maniatis, T., et al., Molecular Cloning: A Laboratory Manual, 1989. The G3PDH probe was labeled with REDIVUE™ ^32P-dCTP (Amersham Pharmacia Biotech, Piscataway, N.J.) and Strip-EZ labelling kit (Ambion, Austin, Tex.). mRNA was quantitated by a PhosphoImager (Molecular Dynamics, Sunnyvale, Calif.).
# Jurkat cells were grown and treated as described above except the concentration of oligonucleotide was varied as indicated in Table 3. […] Maximum inhibition was approximately 70% with 16500 (SEQ ID NO 17).
# [2] = system: human p38β mRNA; experiment: Human p38β mRNA expression in T-24 cells; conditions: relative to control oligonucleotide = 100%
# [3] = system: human p38α mRNA; experiment: Human p38α mRNA expression in T-24 cells; conditions: initial screen of human p38α oligonucleotides
# [4] = system: human p38β mRNA; experiment: Inhibition of human p38β mRNA expression in HUVEC cells, Northern blot; type: cell-based
# Method: as §1
# HUVEC cells were allowed to reach 75% confluency prior to use. The cells were washed twice with warm (37° C.) OPTI-MEM™ (Life Technologies). The cells were incubated in the presence of the appropriate culture medium, without the growth factors added, and the oligonucleotide formulated in LIPOFECTIN7 (Life Technologies), a 1:1 (w/w) liposome formulation of the cationic lipid N-[1-(2,3-dioleyloxy)propyl]-n,n,n-trimethylammonium chloride (DOTMA), and dioleoyl phosphotidylethanolamine (DOPE) in membrane filtered water. HUVEC cells were treated with 100 nM oligonucleotide in 10 μg/ml LIPOFECTIN7. Treatment was for four hours.
# as §2
# Every oligonucleotide tested gave at least 50% inhibition.
# Oligonucleotides 17893 (SEQ ID NO. 27), 17899 (SEQ ID NO:33), 17904 (SEQ ID NO. 38), and 17907 (SEQ ID NO. 41) were chosen for dose response studies. HUVEC cells were cultured and treated as described in Example 2 except that the oligonucleotide concentration was varied as shown in Table 6. The Lipofectin7/Oligo ratio was maintained at 3 μg Lipofectin7/100 nM oligo, per ml. mRNA was measured by Northern blot as described in Example 2.
# [5] = Jurkat cells electroporated with 10 μM oligonucleotide, Northern blot
# [6] = 100 nM oligonucleotide in 10 μg/ml LIPOFECTIN, four hours, Northern blot
sequence,measurement,setting,value
GAAGTGGGATCAACAGAACA (eG*eA*eA*eG*eT*eG*dG*dG*dA*dT*dC*dA*dA*dC*eA*eG*eA*eA*e[5mC]*eA; antisense) [ISIS 16501],% mRNA EXPRESSION,[1]; [5],77%
same,% mRNA Inhibition,[1]; [5],23%
GTAAGCTTCTGACATTTCAC (antisense eG*eT*eA*eA*eG*e[5mC]*dT*dT*dC*dT*dG*dA*dC*dA*eT*eT*eT*e[5mC]*eA*e[5mC]) [ISIS 16496],% mRNA EXPRESSION,[1]; [5],61%
same,% mRNA EXPRESSION,"[1]; Jurkat cells, dose 2.5 nM",94%
same,% mRNA Inhibition,"[1]; Jurkat cells, dose 2.5 nM",6%
same,% mRNA EXPRESSION,"[1]; Jurkat cells, dose 5 nM",74%
same,% mRNA Inhibition,"[1]; Jurkat cells, dose 5 nM",26%
same,% mRNA EXPRESSION,"[1]; Jurkat cells, dose 10 nM",47%
same,% mRNA Inhibition,"[1]; Jurkat cells, dose 10 nM",53%
same,% mRNA EXPRESSION,"[1]; Jurkat cells, dose 20 nM",41%
same,% mRNA Inhibition,"[1]; Jurkat cells, dose 20 nM",59%
CTTCCACCATGGAGGAAATC (antisense e[5mC]*eT*eT*e[5mC]*e[5mC]*eA*dC*dC*dA*dT*dG*dG*dA*dG*eG*eA*eA*eA*eT*e[5mC]) [ISIS 16504],% mRNA EXPRESSION,[1]; [5],72%
same,% mRNA Inhibition,[1]; [5],28%
GTGGAGGCCAGTCCCCGGGA [ISIS 16487],% mRNA EXPRESSION,[1]; [5],171%
CGGACCAGATATCCACTGTT (antisense e[5mC]eGeGeAe[5mC]*d[5mC]*dA*dG*dA*dT*dA*dT*d[5mC]*d[5mC]*dA*e[5mC]eTeGeTeT) [ISIS 107877],% p38β mRNA Expression,[2]; dose 50 nM,50%
same,% p38β mRNA Expression,[2]; dose 100 nM,34%
same,% p38β mRNA Expression,[2]; dose 200 nM,22%
TTTAGGTCCCTGTGAATTAT (eT*eT*eT*eA*eG*eG*dT*dC*dC*dC*dT*dG*dT*dG*eA*eA*eT*eT*eA*eT; antisense) [ISIS 16497],% mRNA EXPRESSION,[1]; [5],104%
ATGTTCTTCCAGTCAACAGC (antisense eA*eT*eG*eT*eT*e[5mC]*dT*dT*dC*dC*dA*dG*dT*dC*eA*eA*e[5mC]*eA*eG*e[5mC]) [ISIS 16498],% mRNA EXPRESSION,[1]; [5],88%
same,% mRNA Inhibition,[1]; [5],12%
"TATGGTCTGTACCAGGAAAC (chimeric deoxy gapped, phosphorothioate, further chemistry not given here) [ISIS 100870]",% P38α mRNA EXPRESSION,[3],51%
CAGAGAGCCTCCTGGGAGGG (antisense e[5mC]*eA*eG*eA*eG*eA*dG*dC*dC*dT*dC*dC*dT*dG*eG*eG*eA*eG*eG*eG) [ISIS 16489],% mRNA EXPRESSION,[1]; [5],149%
TGAAAAGGCCTTCCCCTCAC (antisense eT*eG*eA*eA*eA*eA*dG*dG*dC*dC*dT*dT*dC*dC*e[5mC]*e[5mC]*eT*e[5mC]*eA*e[5mC]) [ISIS 16502],% mRNA EXPRESSION,[1]; [5],79%
same,% mRNA Inhibition,[1]; [5],21%
CAGCCGCGGGACCAGCGGCG (antisense e[5mC]*eA*eG*e[5mC]*e[5mC]*eG*dC*dG*dG*dG*dA*dC*dC*dA*eG*e[5mC]*eG*eG*e[5mC]*eG) [ISIS 16492],% mRNA EXPRESSION,[1]; [5],125%
CATTTTCCAGCGGCAGCCGC (antisense e[5mC]*eA*eT*eT*eT*eT*dC*dC*dA*dG*dC*dG*dG*dC*eA*eG*e[5mC]*e[5mC]*eG*e[5mC]) [ISIS 16493],% mRNA EXPRESSION,[1]; [5],101%
AGGCACTTGAATAATATTTG (eA*eG*eG*e[5mC]*eA*e[5mC]*dT*dT*dG*dA*dA*dT*dA*dA*eT*eA*eT*eT*eT*eG; antisense) [ISIS 16503],% mRNA EXPRESSION,[1]; [5],65%
same,% mRNA EXPRESSION,"[1]; Jurkat cells, dose 2.5 nM",74%
same,% mRNA Inhibition,"[1]; Jurkat cells, dose 2.5 nM",26%
same,% mRNA EXPRESSION,"[1]; Jurkat cells, dose 5 nM",61%
same,% mRNA Inhibition,"[1]; Jurkat cells, dose 5 nM",39%
same,% mRNA EXPRESSION,"[1]; Jurkat cells, dose 10 nM",53%
same,% mRNA Inhibition,"[1]; Jurkat cells, dose 10 nM",47%
same,% mRNA EXPRESSION,"[1]; Jurkat cells, dose 20 nM",41%
same,% mRNA Inhibition,"[1]; Jurkat cells, dose 20 nM",59%
AAGACCGGGCCCGGAATTCC (antisense eA*eA*eG*eA*e[5mC]*e[5mC]*dG*dG*dG*dC*dC*dC*dG*dG*eA*eA*eT*eT*e[5mC]*e[5mC]) [ISIS 16486],% mRNA EXPRESSION,[1]; [5],212%
TCCTGAGACATTTTCCAGCG (antisense eT*e[5mC]*e[5mC]*eT*eG*eA*dG*dA*dC*dA*dT*dT*dT*dT*e[5mC]*e[5mC]*eA*eG*e[5mC]*eG) [ISIS 16494],% mRNA EXPRESSION,[1]; [5],72%
same,% mRNA Inhibition,[1]; [5],28%
GGTCTCGGGCGACCTCTCCT (antisense eG*eG*eT*e[5mC]*eT*e[5mC]*dG*dG*dG*dC*dG*dA*dC*dC*eT*e[5mC]*eT*e[5mC]*e[5mC]*eT) [ISIS 16491],% mRNA EXPRESSION,[1]; [5],148%
TGGCAGCAAAGTGCTGCTGG (eT*eG*eG*e[5mC]*eA*eG*dC*dA*dA*dA*dG*dT*dG*dC*eT*eG*e[5mC]*eT*eG*eG; antisense) [ISIS 16488],% mRNA EXPRESSION,[1]; [5],157%
ACACATGCACACACACTAAC (antisense eA*e[5mC]*eA*e[5mC]*eA*eT*dG*dC*dA*dC*dA*dC*dA*dC*eA*e[5mC]*eT*eA*eA*e[5mC]) [ISIS 16505],% mRNA EXPRESSION,[1]; [5],93%
same,% mRNA Inhibition,[1]; [5],7%
CTGCCGGTAGAACGTGGGCC (antisense e[5mC]*eT*eG*e[5mC]*e[5mC]*eG*dG*dT*dA*dG*dA*dA*dC*dG*eT*eG*eG*eG*e[5mC]*e[5mC]) [ISIS 16495],% mRNA EXPRESSION,[1]; [5],72%
same,% mRNA Inhibition,[1]; [5],28%
TGTGCCGAATCTCGGCCTCT (antisense eT*eG*eT*eG*e[5mC]*e[5mC]*dG*dA*dA*dT*dC*dT*dC*dG*eG*e[5mC]*e[5mC]*eT*e[5mC]*eT) [ISIS 16490],% mRNA EXPRESSION,[1]; [5],152%
same,% mRNA Inhibition,[1]; [5],no inhibition
same,% mRNA EXPRESSION,"[1]; Jurkat cells, dose 2.5 nM",112%
same,% mRNA EXPRESSION,"[1]; Jurkat cells, dose 5 nM",109%
same,% mRNA EXPRESSION,"[1]; Jurkat cells, dose 10 nM",104%
same,% mRNA EXPRESSION,"[1]; Jurkat cells, dose 20 nM",97%
same,% mRNA Inhibition,"[1]; Jurkat cells, dose 20 nM",3%
AACCAGGTGCTCAGGACTCC (antisense eA*eA*e[5mC]*e[5mC]*eA*eG*dG*dT*dG*dC*dT*dC*dA*dG*eG*eA*e[5mC]*eT*e[5mC]*e[5mC]) [ISIS 16500],% mRNA EXPRESSION,[1]; [5],63%
same,% mRNA EXPRESSION,"[1]; Jurkat cells, dose 2.5 nM",82%
same,% mRNA Inhibition,"[1]; Jurkat cells, dose 2.5 nM",18%
same,% mRNA EXPRESSION,"[1]; Jurkat cells, dose 5 nM",71%
same,% mRNA Inhibition,"[1]; Jurkat cells, dose 5 nM",29%
same,% mRNA EXPRESSION,"[1]; Jurkat cells, dose 10 nM",49%
same,% mRNA Inhibition,"[1]; Jurkat cells, dose 10 nM",51%
same,% mRNA EXPRESSION,"[1]; Jurkat cells, dose 20 nM",31%
same,% mRNA Inhibition,"[1]; Jurkat cells, dose 20 nM",69%
same,Maximum inhibition of p38α mRNA,"[1]; Jurkat cells, dose response",approximately 70%
TAAGGAGGTCCCTGCTTTCA (antisense eT*eA*eA*eG*eG*eA*dG*dG*dT*dC*dC*dC*dT*dG*e[5mC]*eT*eT*eT*e[5mC]*eA) [ISIS 16499],% mRNA EXPRESSION,[1]; [5],74%
same,% mRNA Inhibition,[1]; [5],26%
CAGCACCTCACTGCTCAATC (chemistry not fully specified) [ISIS 17904],% mRNA EXPRESSION,[4]; [6],9%
same,% mRNA Inhibition,[4]; [6],91%
same,% mRNA EXPRESSION,[4]; dose 10 nM,31%
same,% mRNA Inhibition,[4]; dose 10 nM,69%
same,% mRNA EXPRESSION,[4]; dose 25 nM,21%
same,% mRNA Inhibition,[4]; dose 25 nM,79%
same,% mRNA EXPRESSION,[4]; dose 50 nM,17%
same,% mRNA Inhibition,[4]; dose 50 nM,83%
same,% mRNA EXPRESSION,[4]; dose 100 nM,19%
same,% mRNA Inhibition,[4]; dose 100 nM,81%
